Results published in ChEMBL document CHEMBL5584309, “Discovery of Novel Mcl-1 Inhibitors with a 3-Substituted-1H-indole-1-yl Moiety Binding to the P1-P3 Pockets to Induce Apoptosis in Acute Myeloid Leukemia Cells” (J Med Chem, 2024).
Calls of active or inactive are those of the source. No cut-off for these calls is given here.

Columns and labels:
[1] = target: T1, Induced myeloid leukemia cell differentiation protein Mcl-1 (Homo sapiens, UniProt Q07820); assay: Binding affinity to Mcl-1 (unknown origin) pre-incubated for 30 mins followed by addition FAM-peptide further incubated for 20 mins by fluorescence polarization-based binding assay; settings: read-out: Ki
[2] = tested on: HL-60; assay: Antiproliferative activity against human HL-60 cells assessed as growth inhibition measured after 72 hrs by CCK-8 assay; format: functional, cell-based; settings: HL-60, 72 h
[3] = target: Apoptosis regulator Bcl-2 (Homo sapiens, UniProt P10415); assay: Binding affinity to Bcl-2 (unknown origin) pre-incubated for 30 mins followed by addition FAM-peptide further incubated for 20 mins by fluorescence polarization-based binding assay
[4] = target: Bcl-2-like protein 1 (Homo sapiens, UniProt Q07817); assay: Binding affinity to Bcl-xL (unknown origin) pre-incubated for 30 mins followed by addition FAM-peptide further incubated for 20 mins by fluorescence polarization-based binding assay
[5] = target: T2, Bcl-2-related protein A1 (Homo sapiens, UniProt Q16548); assay: Binding affinity to Bfl-1 (unknown origin) pre-incubated for 30 mins followed by addition FAM-peptide further incubated for 20 mins by fluorescence polarization-based binding assay
T2 sequence (Q16548 whole entry): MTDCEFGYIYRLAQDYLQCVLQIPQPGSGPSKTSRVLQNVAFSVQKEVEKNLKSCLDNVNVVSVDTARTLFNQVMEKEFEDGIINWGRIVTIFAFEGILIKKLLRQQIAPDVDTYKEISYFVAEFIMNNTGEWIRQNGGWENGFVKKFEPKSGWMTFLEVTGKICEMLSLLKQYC

[6] = tested on: THP-1; assay: Antiproliferative activity against human THP-1 cells assessed as growth inhibition measured after 72 hrs by CCK-8 assay; format: functional, cell-based; settings: THP-1, 72 h
[7] = tested on: MOLM-13; assay: Antiproliferative activity against human MOLM-13 cells assessed as growth inhibition measured after 72 hrs by CCK-8 assay; format: functional, cell-based; settings: MOLM-13, 72 h
[8] = tested on: U-937; assay: Antiproliferative activity against human U-937 cells assessed as growth inhibition measured after 72 hrs by CCK-8 assay; format: functional, cell-based; settings: U-937, 72 h
[9] = tested on: HL-60; assay: Induction of apoptosis in human HL-60 cells assessed as cleaved PARP at 10 to 20 uM measured after 24 hrs by Western blot analysis; format: functional, cell-based; settings: dose 10-20 µM
[10] = tested on: THP-1; assay: Induction of apoptosis in human THP-1 cells assessed as cleaved PARP at 10 to 20 uM measured after 24 hrs by Western blot analysis; format: functional, cell-based; settings: dose 10-20 µM
[11] = target: T1, Induced myeloid leukemia cell differentiation protein Mcl-1; assay: Inhibition of Mcl-1 in human THP-1 cells assessed as dissociation of Bim from Mcl-1 at 20 uM measured after 24 hrs by Co-immunoprecipitation (Co-IP) assay; format: cell-based
[12] = tested on: HL-60; assay: Induction of apoptosis in human HL-60 cells assessed as necrotic cells at 2.5 uM measured after 24 hrs by Annexin V-FITC/propidium iodide double staining based assay (reference value: 0.18%); format: functional
[13] = tested on: HL-60; assay: Induction of apoptosis in human HL-60 cells assessed as viable cells at 5 uM measured after 24 hrs by Annexin V-FITC/propidium iodide double staining based assay (reference value: 92.68%); format: functional; settings: read-out: Activity
[14] = tested on: HL-60; assay: Induction of apoptosis in human HL-60 cells assessed as early apoptotic cells at 5 uM measured after 24 hrs by Annexin V-FITC/propidium iodide double staining based assay (reference value: 3.37%); format: functional
[15] = tested on: HL-60; assay: Induction of apoptosis in human HL-60 cells assessed as late apoptotic cells at 5 uM measured after 24 hrs by Annexin V-FITC/propidium iodide double staining based assay (reference value: 3.78%); format: functional
[16] = tested on: HL-60; assay: Induction of apoptosis in human HL-60 cells assessed as viable cells at 10 uM measured after 24 hrs by Annexin V-FITC/propidium iodide double staining based assay (reference value: 92.68%); format: functional; settings: read-out: Activity
[17] = tested on: HL-60; assay: Induction of apoptosis in human HL-60 cells assessed as early apoptotic cells at 10 uM measured after 24 hrs by Annexin V-FITC/propidium iodide double staining based assay (reference value: 3.37%); format: functional
[18] = tested on: HL-60; assay: Induction of apoptosis in human HL-60 cells assessed as necrotic cells at 10 uM measured after 24 hrs by Annexin V-FITC/propidium iodide double staining based assay (reference value: 0.18%); format: functional
[19] = tested on: THP-1; assay: Induction of apoptosis in human THP-1 cells assessed as late apoptotic cells at 5 uM measured after 24 hrs by Annexin V-FITC/propidium iodide double staining based assay (reference value: 2.81%); format: functional
[20] = tested on: THP-1; assay: Induction of apoptosis in human THP-1 cells assessed as viable cells at 10 uM measured after 24 hrs by Annexin V-FITC/propidium iodide double staining based assay (reference value: 93.02%); format: functional; settings: read-out: Activity
[21] = tested on: THP-1; assay: Induction of apoptosis in human THP-1 cells assessed as early apoptotic cells at 10 uM measured after 24 hrs by Annexin V-FITC/propidium iodide double staining based assay (reference value: 4.04%); format: functional
[22] = tested on: THP-1; assay: Induction of apoptosis in human THP-1 cells assessed as necrotic cells at 10 uM measured after 24 hrs by Annexin V-FITC/propidium iodide double staining based assay (reference value: 0.13%); format: functional
[23] = tested on: THP-1; assay: Induction of apoptosis in human THP-1 cells assessed as viable cells at 20 uM measured after 24 hrs by Annexin V-FITC/propidium iodide double staining based assay (reference value: 93.02%); format: functional; settings: read-out: Activity
[24] = tested on: THP-1; assay: Induction of apoptosis in human THP-1 cells assessed as early apoptotic cells at 20 uM measured after 24 hrs by Annexin V-FITC/propidium iodide double staining based assay (reference value: 4.04%); format: functional
[25] = tested on: THP-1; assay: Induction of apoptosis in human THP-1 cells assessed as necrotic cells at 20 uM measured after 24 hrs by Annexin V-FITC/propidium iodide double staining based assay (reference value: 0.13%); format: functional
[26] = Metabolic stability in rat plasma assessed as compound remaining measured immediately after addition of compound by LC-MS/MS analysis; format: ADME, cell-free; settings: read-out: Stability
[27] = Metabolic stability in rat plasma assessed as compound remaining measured after 10 mins by LC-MS/MS analysis; format: ADME, cell-free; settings: read-out: Stability
[28] = Metabolic stability in rat plasma assessed as compound remaining measured after 30 mins by LC-MS/MS analysis; format: ADME, cell-free; settings: read-out: Stability
[29] = Metabolic stability in rat plasma assessed as compound remaining measured after 60 mins by LC-MS/MS analysis; format: ADME, cell-free; settings: read-out: Stability
[30] = Metabolic stability in rat plasma assessed as compound remaining measured after 120 mins by LC-MS/MS analysis; format: ADME, cell-free; settings: read-out: Stability
[31] = Metabolic stability in rat liver microsomes assessed as compound remaining measured after 5 mins by LC-MS/MS analysis; format: ADME, Microsome
[32] = Metabolic stability in rat liver microsomes assessed as compound remaining measured after 15 mins by LC-MS/MS analysis; format: ADME, Microsome; settings: read-out: Stability
[33] = Metabolic stability in rat liver microsomes assessed as compound remaining measured after 45 mins by LC-MS/MS analysis; format: ADME, Microsome; settings: read-out: Stability
[34] = Metabolic stability in rat liver microsomes assessed as compound remaining measured after 60 mins by LC-MS/MS analysis; format: ADME, Microsome; settings: read-out: Stability
[35] = Metabolic stability in rat liver microsomes assessed as half life by LC-MS/MS analysis; format: ADME, Microsome
[36] = Metabolic stability in rat liver microsomes assessed as intrinsic clearance by LC-MS/MS analysis; format: ADME, Microsome; settings: read-out: CLH

T1 sequence (Q07820 whole entry): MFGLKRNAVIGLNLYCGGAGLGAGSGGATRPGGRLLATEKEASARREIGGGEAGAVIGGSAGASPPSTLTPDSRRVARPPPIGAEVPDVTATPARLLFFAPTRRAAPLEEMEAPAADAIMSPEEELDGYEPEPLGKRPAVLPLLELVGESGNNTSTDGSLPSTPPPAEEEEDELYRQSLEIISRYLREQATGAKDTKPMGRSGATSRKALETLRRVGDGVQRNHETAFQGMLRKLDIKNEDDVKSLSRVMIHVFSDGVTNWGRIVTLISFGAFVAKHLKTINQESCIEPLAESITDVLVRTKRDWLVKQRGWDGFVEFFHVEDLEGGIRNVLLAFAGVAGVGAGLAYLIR
Apoptosis regulator Bcl-2, sequence (P10415 whole entry): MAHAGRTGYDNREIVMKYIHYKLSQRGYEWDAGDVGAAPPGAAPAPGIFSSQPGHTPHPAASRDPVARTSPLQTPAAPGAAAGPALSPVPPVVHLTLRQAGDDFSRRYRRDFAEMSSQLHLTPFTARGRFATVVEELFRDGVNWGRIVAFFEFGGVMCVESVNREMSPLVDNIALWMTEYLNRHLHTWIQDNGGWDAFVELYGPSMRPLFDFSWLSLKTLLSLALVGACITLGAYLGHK
Bcl-2-like protein 1, sequence (Q07817 whole entry): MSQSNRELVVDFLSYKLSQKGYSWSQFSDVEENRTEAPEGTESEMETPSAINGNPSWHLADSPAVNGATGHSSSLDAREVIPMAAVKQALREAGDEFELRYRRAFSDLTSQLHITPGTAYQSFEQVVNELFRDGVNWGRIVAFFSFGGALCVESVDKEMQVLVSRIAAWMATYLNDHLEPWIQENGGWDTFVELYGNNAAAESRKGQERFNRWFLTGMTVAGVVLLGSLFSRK

With `Cc1cc(OCCCc2c(C(=O)O)n(CCN3CCOCC3)c3c(-c4ccccc4Cn4cc(CCN(CCN5CCOCC5)S(=O)(=O)c5ccc(F)cc5)c5ccccc54)cccc23)cc(C)c1Cl` the Ki [1] was 0.024 µM, the IC50 [2] was 5.2 µM and the IC50 [3] was > 100 µM. The IC50 [4] was > 100 µM, the IC50 [5] was > 10 µM and the IC50 [6] was 8.83 µM. For the same molecule, the IC50 [7] was 8.52 µM, the IC50 [8] was 8.33 µM and the Activity [9] was “Active”. For the same molecule, the Activity [10] was “Active”, the Activity [11] was “Active” and the Activity [12] was 0.16%. The viability at 5 µM [13] was 81.9%, the Activity [14] was 4.06% and the Activity [15] was 13.47%. For the same molecule, the viability at 10 µM [16] was 41.2%, the Activity [17] was 12.51% and the Activity [18] was 0.2%. It also gave an Activity [19] of 2.59%, a viability at 10 µM [20] of 91.2% and an Activity [21] of 4.14%. For the same molecule, the Activity [22] was 0.14%, the viability at 20 µM [23] was 68.6% and the Activity [24] was 24.61%. The Activity [25] was 0.52%, the remaining at 0 min [26] was 100% and the remaining at 10 min [27] was 101%. For the same molecule, the remaining at 0.5 h [28] was 87.7%, the remaining at 1 h [29] was 94.8% and the remaining at 2 h [30] was 82.1%. It also gave a Stability ([31]; microsomes, 5 min) of 69.3%, a remaining at 0.25 h [32] of 67.4% and a remaining at 0.75 h [33] of 46%. The remaining at 1 h [34] was 34.1%, the t1/2 ([35]; microsomes) was 45.3 min and the microsomal CLint [36] was 30.6 µL/min/mg.
For `Cc1nn(C)c(COc2ccc(N3CCN(S(=O)(=O)N(C)C)CC3)cc2)c1-c1cccc2c(CCCOc3cccc4ccccc34)c(C(=O)O)n(CCN3CCOCC3)c12`, the Ki [1] was 0.012 µM, the IC50 [2] was 5.53 µM and the IC50 [3] was > 100 µM. The IC50 [4] was > 100 µM, the IC50 [5] was > 10 µM and the IC50 [6] was 5.65 µM. For the same molecule, the IC50 [7] was 8.15 µM, the IC50 [8] was 4.71 µM and the Activity [9] was “Active”. The Activity [10] was “Active”, the Activity [11] was “Active” and the Activity [12] was 0.71%. For the same molecule, the viability at 5 µM [13] was 92.6%, the Activity [14] was 1.28% and the Activity [15] was 4.82%. It also gave a viability at 10 µM [16] of 33%, an Activity [17] of 11.84% and an Activity [18] of 4.86%. For the same molecule, the Activity [19] was 2.54%, the viability at 10 µM [20] was 92.9% and the Activity [21] was 4.2%. It also gave an Activity [22] of 0.09%, a viability at 20 µM [23] of 41.9% and an Activity [24] of 33.09%. The Activity [25] was 0.62%, the remaining at 0 min [26] was 100% and the remaining at 10 min [27] was 93.3%. For the same molecule, the remaining at 0.5 h [28] was 104%, the remaining at 1 h [29] was 106% and the remaining at 2 h [30] was 114%. It also gave a remaining at 5 min ([31]; liver microsomes, read-out: Stability) of 77.1%, a remaining at 0.25 h [32] of 67.6% and a remaining at 0.75 h [33] of 43.7%. The remaining at 1 h [34] was 31.6%, the half-life ([35]; liver microsomes) was 39.7 min and the microsomal CLint [36] was 34.9 µL/min/mg.
